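48-hour exposure; five concentrations; linearly interpolated endpoints. Definition used: TGI = concentration required for complete inhibition of growth.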
Key:
Assay in all cases: NCI anticancer screen, dose series, 48 h
786-0 renal = system: 786-0 renal
A498 renal = system: A498 renal
A549 NSCLC = system: A549 NSCLC
ACHN renal = system: ACHN renal
CAKI-1 renal = system: CAKI-1 renal
CCRF-CEM leukemia = system: CCRF-CEM leukemia
COLO 205 colon = system: COLO 205 colon
DLD-1 colon = system: DLD-1 colon
DMS 114 small cell lung = system: DMS 114 small cell lung
DMS 273 small cell lung = system: DMS 273 small cell lung
EKVX NSCLC = system: EKVX NSCLC
HCC-2998 colon = system: HCC-2998 colon
HCT-116 colon = system: HCT-116 colon
HCT-15 colon = system: HCT-15 colon
HL-60(TB) leukemia = system: HL-60(TB) leukemia
HOP-18 NSCLC = system: HOP-18 NSCLC
HOP-62 NSCLC = system: HOP-62 NSCLC
HOP-92 NSCLC = system: HOP-92 NSCLC
HT29 colon = system: HT29 colon
IGROV1 ovarian = system: IGROV1 ovarian
K-562 leukemia = system: K-562 leukemia
KM12 colon = system: KM12 colon
KM20L2 colon = system: KM20L2 colon
LXFL 529 NSCLC = system: LXFL 529 NSCLC
M14 melanoma = system: M14 melanoma
M19-MEL melanoma = system: M19-MEL melanoma
MALME-3M melanoma = system: MALME-3M melanoma
MOLT-4 leukemia = system: MOLT-4 leukemia
NCI-H226 lung = system: NCI-H226 lung
NCI-H23 lung = system: NCI-H23 lung
NCI-H460 lung = system: NCI-H460 lung
NCI-H522 lung = system: NCI-H522 lung
OVCAR-4 ovarian = system: OVCAR-4 ovarian
OVCAR-5 ovarian = system: OVCAR-5 ovarian
OVCAR-8 ovarian = system: OVCAR-8 ovarian
RPMI-8226 leukemia = system: RPMI-8226 leukemia
RXF 393 renal = system: RXF 393 renal
SF-268 CNS = system: SF-268 CNS
SF-295 CNS = system: SF-295 CNS
SF-539 CNS = system: SF-539 CNS
SK-MEL-2 melanoma = system: SK-MEL-2 melanoma
SK-MEL-28 melanoma = system: SK-MEL-28 melanoma
SK-MEL-5 melanoma = system: SK-MEL-5 melanoma
SK-OV-3 ovarian = system: SK-OV-3 ovarian
SN12C renal = system: SN12C renal
SNB-19 CNS = system: SNB-19 CNS
SNB-75 CNS = system: SNB-75 CNS
SNB-78 CNS = system: SNB-78 CNS
SR leukemia = system: SR leukemia
SW-620 colon = system: SW-620 colon
TK-10 renal = system: TK-10 renal
U251 CNS = system: U251 CNS
UACC-257 melanoma = system: UACC-257 melanoma
UACC-62 melanoma = system: UACC-62 melanoma
UO-31 renal = system: UO-31 renal
XF 498 CNS = system: XF 498 CNS
LOX IMVI melanoma = system: LOX IMVI melanoma
OVCAR-3 ovarian = system: OVCAR-3 ovarian

COC(=O)C1=C(C)C(=O)[C@H]2C(C(=O)OC)CCCC[C@@H]12 (stereo partly specified) gave a TGI (786-0 renal) greater than 100 µM, a TGI (A498 renal) greater than 100 µM and a TGI (A549 NSCLC) greater than 100 µM. It also gave a TGI (ACHN renal) greater than 100 µM, a TGI (CAKI-1 renal) greater than 100 µM and a TGI (CCRF-CEM leukemia) greater than 100 µM. It also gave a TGI (COLO 205 colon) greater than 100 µM, a TGI (DLD-1 colon) greater than 100 µM and a TGI (DMS 114 small cell lung) of 99 µM. The TGI (DMS 273 small cell lung) was greater than 100 µM, the TGI (EKVX NSCLC) was greater than 100 µM and the TGI (HCC-2998 colon) was greater than 100 µM. The TGI (HCT-116 colon) was greater than 100 µM, the TGI (HCT-15 colon) was greater than 100 µM and the TGI (HL-60(TB) leukemia) was greater than 100 µM. For the same molecule, the TGI (HOP-18 NSCLC) was greater than 100 µM, the TGI (HOP-62 NSCLC) was greater than 100 µM and the TGI (HOP-92 NSCLC) was greater than 100 µM. It also gave a TGI (HT29 colon) greater than 100 µM, a TGI (IGROV1 ovarian) greater than 100 µM and a TGI (K-562 leukemia) greater than 100 µM. It also gave a TGI (KM12 colon) greater than 100 µM, a TGI (KM20L2 colon) greater than 100 µM and a TGI (LXFL 529 NSCLC) greater than 100 µM. The TGI (M14 melanoma) was greater than 100 µM, the TGI (M19-MEL melanoma) was greater than 100 µM and the TGI (MALME-3M melanoma) was greater than 100 µM. It also gave a TGI (MOLT-4 leukemia) greater than 100 µM, a TGI (NCI-H226 lung) greater than 100 µM and a TGI (NCI-H23 lung) greater than 100 µM. It also gave a TGI (NCI-H460 lung) greater than 100 µM, a TGI (NCI-H522 lung) greater than 100 µM and a TGI (OVCAR-4 ovarian) greater than 100 µM. It also gave a TGI (OVCAR-5 ovarian) greater than 100 µM, a TGI (OVCAR-8 ovarian) greater than 100 µM and a TGI (RPMI-8226 leukemia) greater than 100 µM. For the same molecule, the TGI (RXF 393 renal) was greater than 100 µM, the TGI (SF-268 CNS) was greater than 100 µM and the TGI (SF-295 CNS) was greater than 100 µM. For the same molecule, the TGI (SF-539 CNS) was greater than 100 µM, the TGI (SK-MEL-2 melanoma) was greater than 100 µM and the TGI (SK-MEL-28 melanoma) was greater than 100 µM. It also gave a TGI (SK-MEL-5 melanoma) greater than 100 µM, a TGI (SK-OV-3 ovarian) greater than 100 µM and a TGI (SN12C renal) greater than 100 µM. For the same molecule, the TGI (SNB-19 CNS) was greater than 100 µM, the TGI (SNB-75 CNS) was greater than 100 µM and the TGI (SNB-78 CNS) was greater than 100 µM. It also gave a TGI (SR leukemia) greater than 100 µM, a TGI (SW-620 colon) greater than 100 µM and a TGI (TK-10 renal) greater than 100 µM. The TGI (U251 CNS) was greater than 100 µM, the TGI (UACC-257 melanoma) was greater than 100 µM and the TGI (UACC-62 melanoma) was greater than 100 µM. For the same molecule, the TGI (UO-31 renal) was greater than 100 µM and the TGI (XF 498 CNS) was greater than 100 µM.

With O=C1C(=Cc2cccs2)C(=O)N(CCc2ccccc2)S(=O)(=O)N1CCc1ccccc1 the TGI (786-0 renal) was greater than 50 µM, the TGI (A549 NSCLC) was greater than 50 µM and the TGI (ACHN renal) was greater than 50 µM. It also gave a TGI (CCRF-CEM leukemia) greater than 50 µM, a TGI (COLO 205 colon) greater than 50 µM and a TGI (DLD-1 colon) greater than 50 µM. It also gave a TGI (DMS 114 small cell lung) of 22.2 µM, a TGI (DMS 273 small cell lung) greater than 50 µM and a TGI (EKVX NSCLC) greater than 50 µM. The TGI (HCC-2998 colon) was greater than 50 µM, the TGI (HCT-116 colon) was 30.4 µM and the TGI (HCT-15 colon) was greater than 50 µM. It also gave a TGI (HL-60(TB) leukemia) of 38.4 µM, a TGI (HOP-18 NSCLC) greater than 50 µM and a TGI (HOP-92 NSCLC) greater than 50 µM. The TGI (HT29 colon) was greater than 50 µM, the TGI (IGROV1 ovarian) was 16.5 µM and the TGI (K-562 leukemia) was greater than 50 µM. It also gave a TGI (KM12 colon) greater than 50 µM, a TGI (KM20L2 colon) greater than 50 µM and a TGI (LOX IMVI melanoma) greater than 50 µM. For the same molecule, the TGI (LXFL 529 NSCLC) was greater than 50 µM, the TGI (M14 melanoma) was greater than 50 µM and the TGI (M19-MEL melanoma) was greater than 50 µM. It also gave a TGI (MALME-3M melanoma) greater than 50 µM, a TGI (MOLT-4 leukemia) greater than 50 µM and a TGI (NCI-H226 lung) greater than 50 µM. For the same molecule, the TGI (NCI-H23 lung) was greater than 50 µM, the TGI (NCI-H460 lung) was greater than 50 µM and the TGI (NCI-H522 lung) was greater than 50 µM. It also gave a TGI (OVCAR-3 ovarian) greater than 50 µM, a TGI (OVCAR-4 ovarian) greater than 50 µM and a TGI (OVCAR-5 ovarian) greater than 50 µM. For the same molecule, the TGI (OVCAR-8 ovarian) was greater than 50 µM, the TGI (RPMI-8226 leukemia) was greater than 50 µM and the TGI (RXF 393 renal) was greater than 50 µM. The TGI (SF-268 CNS) was greater than 50 µM, the TGI (SF-295 CNS) was greater than 50 µM and the TGI (SF-539 CNS) was greater than 50 µM. For the same molecule, the TGI (SK-MEL-2 melanoma) was greater than 50 µM, the TGI (SK-MEL-28 melanoma) was greater than 50 µM and the TGI (SK-MEL-5 melanoma) was greater than 50 µM. The TGI (SK-OV-3 ovarian) was greater than 50 µM, the TGI (SN12C renal) was greater than 50 µM and the TGI (SNB-19 CNS) was greater than 50 µM. For the same molecule, the TGI (SNB-75 CNS) was greater than 50 µM, the TGI (SNB-78 CNS) was greater than 50 µM and the TGI (SR leukemia) was greater than 50 µM. For the same molecule, the TGI (SW-620 colon) was greater than 50 µM, the TGI (TK-10 renal) was greater than 50 µM and the TGI (U251 CNS) was 35.2 µM. The TGI (UACC-257 melanoma) was greater than 50 µM, the TGI (UACC-62 melanoma) was greater than 50 µM and the TGI (UO-31 renal) was greater than 50 µM. The TGI (XF 498 CNS) was greater than 50 µM.

— PubChem BioAssay (NCI)
